Data as given in publication PMC9794428, “Enzyme Inhibitory Activities of Extracts and Carpachromene from the Stem of Ficus benghalensis” (BioMed Research International, 2022).

What was measured:
PDE-1 = system: T1, PDE-1; assay: bis(p-nitrophenyl) substrate hydrolysis, […] nm; format: biochemical; conditions: 0.33 mM bis(p-nitrophenyl) substrate, Mg acetate, Tris-HCl pH 8.8, 37 °C
T1 construct: gene phosphodiesterase I; substrate bis(p-nitrophenyl) phosphate type, pH 8.8 and Mg acetate fit the usual snake venom phosphodiesterase I, not the docking model human PDE1B (5W6E)

[1] = target: T2, mushroom tyrosine [tyrosinase]; assay: L-DOPA oxidation, absorbance […] nm; format: biochemical; conditions: L-DOPA (printed L-DOP) substrate, phosphate buffer, 37 °C
T2 construct: gene PPO1; docking model 1WX2 is another species (Streptomyces)

SMILES | IC50 (PDE-1) | IC50 [1] | IC50 (PDE-1; chelator used as standard)
CC1(C)C=Cc2c(cc3oc(-c4ccc(O)cc4)cc(=O)c3c2O)O1 [compound 1, carpachromene] | 209.4 ± 1.87 µM | 40.5 ± 2 µM | 
O=C(O)CN(CCN(CC(=O)O)CC(=O)O)CC(=O)O [EDTA] |  |  | 264.1 ± 1.09 µM
O=c1cc(CO)occ1O [Kojic acid] |  | 44 ± 1.1 µM | 
